Measured values: patent US20100041746A1, “NOVEL USE OF ORGANIC COMPOUNDS” (priority 2006, published 2010)

How the values were obtained:
C57B1/6J mice = experiment: Running performance, body composition and muscle weight of high-fat-diet mice supplemented for 9 weeks; type: in vivo, mouse
Experimental: 20 male C57B1/6J mice were obtained from Jackson Laboratory (Bar Harbor, Me., USA) at the age of 5 weeks. All mice were administered a high-fat diet (Kliba#2154, Provimi Kliba AG, Kaiseraugst, Switzerland) for 8 weeks to induce obesity. Thereafter, the mice were randomly assigned into two groups:
The duration of the supplementation was 9 weeks. During this period all mice received food and water ad libitum. At the end of the supplementation period, maximal running performance on a rodent treadmill (Technical & Scientific Equipment GmbH, Bad Homburg, Germany) was determined. Body composition was measured by quantitative magnetic resonance (Minispec MQ10, Bruker Optics GmbH, Faellanden, Switzerland) in conscious animals. At the end of the study, the animals were killed, blood was taken and the gastrocnemius-plantaris-soleus muscle group was excised and weighted.

mCPT1b = experiment: Gene expression in C2C12 muscle cells (TaqMan RT-PCR): mCPT1b; type: cell-based, mouse; settings: for mCPT1b fold of induction compared to DMSO control: C2C12 cells, 24 h incubation, mRNA; for Effect on CPT1b expression (in words): muscle cells
Experimental: (§1) C2C12 subclone cells were obtained from Dr. Grimaldi, University of Nice, France. C2C12PPd cells were seeded in 24-well-plates with 0.1×106 to 0.15×106 and kept at 37° C. in maintenance medium (DMEM #41965 adjusted to 10% FBS, 2 mM L-Glutamine, 1 mM sodium pyruvate, 100 IU/ml penicillin and 100 μg/ml streptomycin). At 90-95% confluency, cells were washed with 1×PBS and changed to differentiation medium (DMEM #41965 adjusted to 3% FBS, 2 mM Glutamine and 1 mM sodium pyruvate). After 4 days of differentiation, cells were washed with 1×PBS and treated in treatment medium (DMEM #41965 adjusted to 2% BSA, 2 mM Glutamine and 100 IU/ml penicillin and 100 μg/ml streptomycin) with the test compounds. DMSO contents were adjusted to 0.5% final concentration.
(§2) After 24 h incubation with tested compounds, cells were washed with 1×PBS, harvested with 300 μl RLT buffer (Qiagen RNeasy Mini Kit #74106) in QIAshredder (Qiagen 79656) and stored at −20° C.
(§3) Total RNA was extracted using the Qiagen RNeasy Mini Kit, including an in column DNase step (Qiagen #79254) according to the manufacture's protocol. RNA concentration was determined using RiboGreen® RNA quantification assay (Molecular Probes #R11490, Eugene, USA) according to the manufacturer's protocol. 200 ng of the total RNA were subject to first strand cDNA synthesis by reverse transcription using the Omniscript™ RT-kit (Qiagen #205113, Basel, CH) with 10 μM Random Primers (Promega #C1181) according to the manufacturer's instructions. The final volume was adjusted to 400 μl with DEPC-treated water (Ambion, Austin, Tex., USA) and stored at −20° C.
(§4) Quantitative real-time TaqMan RT-PCR, based on the multiplex method, was used to quantify the expression levels of selected genes. In the quantitative TaqMan RT-PCR, 5 μl of the diluted cDNA was added to 20 μl of the reaction mixture, consisting of 12.5 μl TaqMan 2× Master Mix (PE biosystems, Rotkreuz, CH), 300 nM PCR primers (forward and reverse), and 100 nM TaqMan probe for the gene of interest. The reference gene used was 18S rRNA, with primers and probes at 50 nM and 100 nM, respectively. Probes for the gene of interest were labeled with FAM on the 5′ end and with Tamra on the 3′ end. The 18S rRNA probe was labeled with VIC on the 5′ end and with Tamra on the 3′ end. Amplification was performed using an Abi-Prism 7700 Sequence Detector (PE Biosystems, Foster City, Calif., USA) in MicroAmp Optical 96-well reaction plates (PE Biosystems, Foster City, Calif., USA). The PCR amplification program consisted of 2 min at 50° C., 10 min at 95° C., and 40 cycles of 15 sec at 95° C. and 60 sec at 60° C. Threshold CT values were set at 0.05. The baseline start and stop values for the gene of interest were set at 3 and 15, respectively, and for the reference gene (18S rRNA) at 3 and 7, respectively. mRNA abundance was determined using the ΔCT method according to the manufacturer's protocol. Briefly, the ΔCT for the gene of interest was determined as the difference between the CT values for the reference gene and the gene of interest. Then, ΔΔCT was determined as the difference in dCT between the untreated control group and each of the treated groups. The fold induction for the gene of interest (i.e. the amount of mRNA for the gene of interest, normalized to an endogenous reference and relative to a calibrator) was determined as 2-ΔΔCT In graphs data is presented as a percentage.
(§5) Genes in involved in fatty acid β-oxidation and lipid metabolism were checked using real-time RT-PCR.

mUCP2 = experiment: Gene expression in C2C12 muscle cells (TaqMan RT-PCR): mUCP2; type: cell-based, mouse; settings: 24 h incubation, mRNA
Experimental: as §1, §2, §3, §4, §5

mLPL = experiment: Gene expression in C2C12 muscle cells (TaqMan RT-PCR): mLPL; type: cell-based, mouse; settings: for mLPL fold of induction compared to DMSO control: C2C12 cells, 24 h incubation, mRNA; for Effect on LPL expression (in words): muscle cells
Experimental: as §1, §2, §3, §4, §5

mCD36 = experiment: Gene expression in C2C12 muscle cells (TaqMan RT-PCR): mCD36; type: cell-based, mouse; settings: for mCD36 fold of induction compared to DMSO control: C2C12 cells, 24 h incubation, mRNA; for Effect on CD36 expression (in words): muscle cells
Experimental: as §1, §2, §3, §4, §5

mFABP3 = experiment: Gene expression in C2C12 muscle cells (TaqMan RT-PCR): mFABP3; type: cell-based, mouse; settings: for mFABP3 fold of induction compared to DMSO control: C2C12 cells, 24 h incubation, mRNA; for Effect on FABP3 expression (in words): muscle cells
Experimental: as §1, §2, §3, §4, §5

mACO1 = experiment: Gene expression in C2C12 muscle cells (TaqMan RT-PCR): mACO1; type: cell-based, mouse; settings: 24 h incubation, mRNA
Experimental: as §1, §2, §3, §4, §5

mUCP3 = experiment: Gene expression in C2C12 muscle cells (TaqMan RT-PCR): mUCP3; type: cell-based, mouse; settings: for mUCP3 fold of induction compared to DMSO control: C2C12 cells, 24 h incubation, mRNA; for Effect on UCP3 expression (in words): muscle cells
Experimental: as §1, §2, §3, §4, §5

[1] = compared to mice in the control group
[2] = mice, high-fat diet supplemented with 0.03% w/w, 9 weeks
[3] = mice, high-fat diet supplemented with 0.03% w/w, 9 weeks, quantitative magnetic resonance

SMILES	mCPT1b fold of induction compared to DMSO control (mCPT1b) [fold]	mUCP2 fold of induction compared to DMSO control (mUCP2) [fold]	mLPL fold of induction compared to DMSO control (mLPL) [fold]	mCD36 fold of induction compared to DMSO control (mCD36) [fold]	mFABP3 fold of induction compared to DMSO control (mFABP3) [fold]	mACO1 fold of induction compared to DMSO control (mACO1) [fold]	Effect on CPT1b expression (in words) (mCPT1b)	Effect on LPL expression (in words) (mLPL)	Effect on CD36 expression (in words) (mCD36)	mUCP3 fold of induction compared to DMSO control (mUCP3) [fold]	Effect on UCP3 expression (in words) (mUCP3)	Effect on FABP3 expression (in words) (mFABP3)	other results
COc1ccc(-c2coc3cc(OC)ccc3c2=O)cc1 [4′,7-Dimethoxyisoflavone, 4′,7-dimethoxyisoflavone]	–	–	–	–	–	–	–	–	–	–	–	–	Increase of maximal running distance (C57B1/6J mice; compared to control group, treadmill): 6%; Effect on body weight (in words) (C57B1/6J mice; [1]): decreased; Effect on gastrocnemius-plantaris-soleus weight relative to body weight (in words) (C57B1/6J mice; [1]): increased; Effect on percentage of body fat mass (in words) (C57B1/6J mice; [1]): decreased; Effect on percentage of lean body mass (in words) (C57B1/6J mice; [1]): increased; Body weight (C57B1/6J mice; [2]): 30.5 g; Gastrocnemius-plantaris-soleus weight (C57B1/6J mice; [2]): 6.74 mg/g body weight; Body fat mass (C57B1/6J mice; [3]): 15.6 % of body weight; Lean body mass (C57B1/6J mice; [3]): 75.0 % of body weight; Maximal running distance (C57B1/6J mice; mice, high-fat diet supplemented with 0.03% w/w, 9 weeks, rodent treadmill): 2201 m
O=C(C=Cc1ccc(O)c(O)c1)NC(=O)c1ccccc1O [Compound 1, N-[3-(3,4-dihydroxyphenyl)-1-oxo-2-propenyl]-2-hydroxybenzamide]	1.33	2.46	1.11	2.93	1.35	1.98	–	–	–	–	–	–	–
COc1cc(C=CC(=O)NC(=O)c2ccccc2O)cc(OC)c1OC [Compound 2]	1.05	3.27	1.91	3.2	1.63	1.81	–	–	–	–	–	–	–
COc1ccc(C=CC(=O)c2cc(OC)ccc2OC)c(OC)c1 [Compound 3, 3-(2,4-dimethoxyphenyl)-1-(2,5-dimethoxyphenyl)-2-propen-1-one]	3.64	4.25	3.5	10.16	4.76	1.54	induced	increased moderately	most remarkable effect	4.73	increased UCP3 expression	most remarkable effect	–
COc1ccc(C(=O)/C=C/c2c(CCN(C)C(C)=O)cc3c(c2OC)OCO3)cc1 [Compound 4]	5.08	7.55	3.31	15.56	6.29	1.74	induced	increased moderately	most remarkable effect	5.95	increased UCP3 expression	most remarkable effect	–
COc1ccc(C(=O)C=Cc2cccc(OC(=O)C=Cc3ccccc3)c2)cc1 [Compound 5, 3-phenyl-2-propenoic acid 3-[3-(4-methoxyphenyl)-3-oxo-1-propenyl]phenyl ester]	4.19	2.33	1.84	1.91	1.88	1.03	induced	–	–	–	–	–	–
COc1ccc(C(=O)C=Cc2ccc(OC)c(OC)c2)cc1 [Compound 6, 3-(3,4-dimethoxyphenyl)-1-(4-methoxyphenyl)-2-propen-1-one]	1.62	6.1	2.44	22.66	5.02	1.09	–	increased moderately	most remarkable effect	1.92	increased UCP3 expression	most remarkable effect	–
COc1ccc(C=C2Oc3cc(O)ccc3C2=O)cc1 [Compound 7]	1.12	2.33	1.06	2.95	2.16	1.03	–	–	–	–	–	–	–
COc1ccc(C(=O)C=Cc2ccc(OC)cc2OC)cc1 [Compound 8, 3-(2,4-dimethoxyphenyl)-1-(4-methoxyphenyl)-2-propen-1-one]	1.29	4.68	1.88	9.49	3.36	1.15	–	–	–	–	–	–	–
